Source: article PMC11989239, “Structure–Property Relationships in Novel Series of Photoswitchable Local Anesthetic Ethercaine Derivatives: Emphasis on Biological and Photophysical Properties” (International Journal of Molecular Sciences, 2025)
Where a name gives a salt, the structure may show the parent alone.

Tests used:
rabbit eye cornea = test: Surface anesthesia on the rabbit cornea, Regnier method (Regnier index); assay type: in vivo; conditions: for Local Anesthetic Activity (Regnier Index, Min—13, Max—1300) In the Dark / Local Anesthetic Activity (Regnier Index, Min—13, Max—1300) Under Irradiation (λ = 365 nm): 1% solution, 0.2 mL instilled, mean ± SD; for Local Anesthetic Activity (Regnier Index, Min—13, Max—1300) In the Dark: in the dark (E-form predominance); for Local Anesthetic Activity (Regnier Index, Min—13, Max—1300) Under Irradiation (λ = 365 nm): solution irradiated with UV 365 nm (Z-form predominance)
Procedure: Thus, the main biological property investigated in this work was the local anesthetic activity of the new derivatives in the dark (with a predominance of the E-form) and under irradiation (with a predominance of the Z-form). The evaluation of local anesthetic activity was conducted on the rabbit cornea using the Regnier method. […] RI values in darkness (451 ± 40) and under UV light irradiation (469 ± 37) for a 2% solution of lidocaine, used as a reference drug, were obtained previously and are independent of light exposure. A 4% aqueous solution of Kolliphor® ELP, used for solubilizing ethercaine and its derivatives and lacking intrinsic local anesthetic activity, was employed as a negative control. In vitro cytotoxicity studies were conducted to initially assess the safety of the compounds.
Non-anesthetized, mature male rabbits of a Soviet chinchilla breed weighing 2–3 kg, obtained from the KrolInfo farm (Orekhovo-Zuyevo, Russia), were used in this study. Animals were kept under standard conditions (humidity 50–60%, temperature 19–22 °C). A 12-h lighting cycle was maintained. Each animal was kept in a separate cage. Animals had ad libitum access to standard extruded feed “CHARA” (CJSC “Assortiment-Agro”, Turakovo Village, Moscow region, Russia) and clean drinking water. Water treatment was performed using a “7 TECHNOCOM” block modular system (LLC “7 TECH”, Moscow, Russia). For in vivo, surface anesthesia measurements, an in-house-made anesthesiometer with a fixed length of a nylon filament (l = 1.0 cm, d = 0.125 mm) was used. Statistical analysis was performed, and figures were plotted using the Python programming language’s standard functions and a Matplotlib package (Version 3.8) for Python. All biological data conformed to a normal distribution (Shapiro–Wilk’s W test, p > 0.05). All data are expressed as the mean ± standard deviation.
For determination of the rabbit eye cornea’s sensitivity using the surface anesthesia method, 12 rabbits with a basic sensitivity threshold (sensitivity threshold of the eye cornea to tactile impact of the anesthesiometer) of 1–2 touches were selected. They were used in experiments repeatedly with an interval of at least 5 days between the experiments. Each eye was considered as a separate experimental point. Three animals were used in each of the experimental groups (n = 6). Two animals (n = 4) were used in each of the negative control groups and in each of experimental groups with UV irradiation due to the expected lack of the effect and to minimize the number of animals in the experiment. Animals were randomly divided into groups. Before an experiment, the animals were immobilized, leaving the head free. Before each experiment, the animals’ eyelashes were cut out, and the basic threshold of sensitivity of the eye cornea to tactile contact was determined using an anesthesiometer.
The irradiation modes were described earlier. Experiments with animals were carried out in a darkened room with a 50W LED light source (λ = 625 nm), which lies outside the absorption bands of the UV/Vis spectrum of the test compound. Before the experiments, solutions of test compounds were irradiated for 5 min with UV light (λ = 365 nm, LED flashlight, 0.5 W).
The adaptation of a model of surface anesthesia on the rabbit’s cornea using the Regnier method for the study of light-controlled local anesthetics was described earlier. The test solution (0.2 mL) of the required concentration (2% for the lidocaine or 1% for the ethercaine and its derivatives) was instilled into each conjunctival sac. After that, the sensitivity threshold of the eye cornea to tactile impact was determined. The first determination was performed at the 8th minute of the experiment and then at the 10th, 12th, 15th, 20th, 25th, 30th, 35th, 40th, 45th, 50th, 55th, and 60th min (13 values overall). […]

[1] = Z-E isomerization half-life by UV/Vis spectrophotometry after 365 nm irradiation; assay type: physicochemical; conditions: for τ1/2 (DMSO), Z-E isomerization half-life: RT, after 365 nm 5 min; for τ1/2 (Aqueous Kolliphor ELP), Z-E isomerization half-life: aqueous 4% Kolliphor ELP solution
Procedure: As one of the main physicochemical properties of photopharmacological agents, the Z-E half-life was investigated, which determines the stability of the Z-isomer. The Z-E half-lifes were measured using UV/Vis spectrophotometry, converting the compound to the Z-isomer by irradiating with UV light and observing the change in absorption intensity due to reverse Z-E relaxation.
Z-E isomerization half-life was determined using UV/Vis spectroscopy. Solutions were prepared and kept in the dark at RT before the experiment. First, the spectrum in the dark was registered ( PSSdark) , which corresponds to the photostationary state (PSS) with E-isomer predominance. Then, the cuvette with the solution was irradiated with UV light (λ = 365 nm) for 5 min to give the PSS with Z-isomer predominance. The corresponding spectrum was registered ( PSS365nm) . During the subsequent isomerization, the kinetics of changes in the absorption value were recorded at the wavelength of the absorption maximum corresponding to the E-isomer ( λmax(E)) . Then, lnAt/A0 values were calculated using the Equation (1):(1) lnAt/A0=lnAbsPSS(dark)−Abstime/AbsPSS(dark)−AbsPSS(365nm), where AbsPSS(dark) , AbsPSS(365nm), and Abstime are absorbance values at λmax(E) in the dark at the beginning of the experiment, after UV light (λ = 365 nm) irradiation, and at different time points from 0 to 60 min, respectively. Then, a graph was plotted depending on lnAt/A0 values from time, the trend line was calculated, and a first-order rate constant (k) for the thermal back Z-E isomerization reaction was obtained as the slope of the trend line.
For a first-order reaction, half-life t1/2 can be calculated using the Equation (2):(2) t1/2=ln2/k

[2] = In vitro cytotoxicity, MTT test, 24 h incubation; assay type: cell-based, human; conditions: human, dermal fibroblast cells (DF2), DF2 fibroblasts
Procedure: (§1) The culture of dermal fibroblast cells (DF2) was obtained from the collection of the Institute of Cytology of the Russian Academy of Sciences (Saint Petersburg, Russia). The cells were cultured in plastic vials with a cell growth surface of 25 cm^2 (Costar, Richmond, VA, USA) on DMEM/F12 medium with the addition of L-glutamine and 10% fetal bovine serum (FBS) (PanEco, Moscow, Russia). The cells were cultured at 37 °C in a humid atmosphere with a content of 5% CO2 (Binder CO2 incubator, Germany). Cell lines from 3 to 7 passages were used in the work. To conduct experiments to evaluate the cytotoxicity of compounds, cells were sieved into 96-well culture plates at a concentration of 10^5 cells per ml, incubated at 37 °C (humidified atmosphere, 5% carbon dioxide) for 24–28 h. Further, 50 µL of the studied substances was added. The cells were incubated with the compounds for 24 h at 37 °C. Next, the cytotoxic effect of the substances was evaluated by a colorimetric method using an MTT test and visually, using an inverted microscope. The criterion for evaluating the specific activity of the compound was the value of IC50, the concentration at which 50% death of culture cells was noted.

[3] = system: human dermal fibroblasts (DF2); test: In vitro cytotoxicity, MTT test, 24 h incubation; assay type: cell-based
Procedure: as §1

Structure (SMILES)	Decrease in Regnier index under UV light irradiation (365 nm) versus darkness (rabbit eye cornea; dark vs 365 nm) [fold]	τ1/2 (DMSO), Z-E isomerization half-life [1] [h]	τ1/2 (Aqueous Kolliphor ELP), Z-E isomerization half-life [1] [h]	IC50 at 24 h [2] [µM]	τ1/2 (Aqueous Kolliphor ELP column), Z-E isomerization half-life ([1]; value obtained for the solution in water) [h]	Local Anesthetic Activity (Regnier Index, Min—13, Max—1300) In the Dark (rabbit eye cornea)	Local Anesthetic Activity (Regnier Index, Min—13, Max—1300) Under Irradiation (λ = 365 nm) (rabbit eye cornea)	IC50 [3] [µM]
c1ccc(/N=N/c2ccc(OCCN3CCOCC3)cc2)cc1 [Compound 1, Ethercaine hydrochloride]	19	2.1	0.833	210				
c1ccc(/N=N/c2ccccc2OCCN2CCOCC2)cc1 [Compound 9a, 2-(2-(N-morpholino)-ethoxy)-azobenzene hydrochloride]		17.2	125	> 1000				
c1ccc(/N=N/c2cccc(OCCN3CCOCC3)c2)cc1 [Compound 9b, 3-(2-(N-morpholino)-ethoxy)-azobenzene hydrochloride]		26.8	437	240				
CN1CCN(CCOc2ccc(/N=N/c3ccccc3)cc2)CC1 [Compound 14, 4-(2-(4-Methyl-1-Piperazino)-Ethoxy)-Azobenzene Dihydrochloride]		18.6		60	3.5			
CCN(CC)CCOc1ccc(N=Nc2ccccc2)cc1.Cl [Compound 16, 4-(2-(N,N-Diethylamino)Ethoxy)Azobenzene Hydrochloride]		15.6	6.0	90				
Cl.Fc1cc(OCCN2CCOCC2)ccc1N=Nc1ccccc1 [Compound 20a, 2-fluoro-4-(2-(N-morpholino)-ethoxy)-azobenzene hydrochloride]		7.8	2.5			509 ± 34 (n = 6)	64 ± 15 (n = 4)	190
Cl.Fc1cc(OCCN2CCOCC2)cc(F)c1N=Nc1ccccc1 [Compound 20b, 2,6-difluoro-4-(2-(N-morpholino)-ethoxy)-azobenzene hydrochloride]		456	1.9			538 ± 37 (n = 6)	58 ± 8 (n = 4)	180
Cl.Fc1ccccc1N=Nc1ccc(OCCN2CCOCC2)cc1 [Compound 20c, 2′-fluoro-4-(2-(N-morpholino)-ethoxy)-azobenzene hydrochloride]		3.6	0.4			590 ± 24 (n = 6)	70 ± 7 (n = 4)	190
Cl.Fc1ccccc1N=Nc1ccc(OCCN2CCOCC2)cc1F [Compound 20d, 2,2′-difluoro-4-(2-(N-morpholino)-ethoxy)-azobenzene hydrochloride]		8.1	2.3			419 ± 57 (n = 6)	84 ± 8 (n = 4)	190
Cl.Fc1ccccc1N=Nc1c(F)cc(OCCN2CCOCC2)cc1F [Compound 20e, 2,2′,6-trifluoro-4-(2-(N-morpholino)-ethoxy)-azobenzene hydrochloride]		703	60			395 ± 72 (n = 6)	59 ± 18 (n = 4)	190
Cl.Fc1cccc(F)c1N=Nc1ccc(OCCN2CCOCC2)cc1 [Compound 20f, 2′,6′-difluoro-4-(2-(N-morpholino)-ethoxy)-azobenzene hydrochloride]		24	1.0			570 ± 87 (n = 6)	76 ± 19 (n = 4)	210
Cl.Fc1cc(OCCN2CCOCC2)ccc1N=Nc1c(F)cccc1F [Compound 20g, 2,2′,6′-trifluoro-4-(2-(N-morpholino)-ethoxy)-azobenzene hydrochloride]		137	5.0			437 ± 37 (n = 6)	45 ± 9 (n = 4)	180
Cc1cnc(/N=N/c2ccc(OCCN3CCOCC3)cc2)s1 [Compound 25b, 2-(4-(2-(N-morpholino)-ethoxy)-phenylazo)-5-methylthiazole hydrochloride]		0.083	0.067	440				
